According to ChEMBL document CHEMBL5356960, “Discovery of Selective and Orally Available Galectin-1 Inhibitors” (J Med Chem, 2023):
Blank lines part the entries; values can stand above or below the compound they belong to. Active and inactive are the calls of the source. The rule behind the calls is not given here.

Experiments:
Jurkat [1] = experiment: Inhibition of galectin-1 induced apoptosis in human Jurkat T cells assessed as reduction in caspase-3 activation upto 24 uM incubated for 24 hrs by CellEvent caspase-3/7 green fluorescent detection reagent based imaging analysis; assay type: functional, cell-based
Galectin-3 [2] = biological target: T1, Galectin-3 (Homo sapiens, UniProt P17931); experiment: Binding affinity to human galectin-3 assessed as dissociation constant by fluorescence polarization assay
T1 sequence (P17931 whole entry): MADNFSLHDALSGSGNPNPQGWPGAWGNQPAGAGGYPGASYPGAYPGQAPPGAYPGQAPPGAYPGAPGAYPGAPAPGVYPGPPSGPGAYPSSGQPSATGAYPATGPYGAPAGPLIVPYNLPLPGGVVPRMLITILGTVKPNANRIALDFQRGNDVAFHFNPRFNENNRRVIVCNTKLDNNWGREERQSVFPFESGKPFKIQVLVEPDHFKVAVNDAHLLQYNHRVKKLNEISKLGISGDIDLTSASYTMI

[3] = Apparent permeability from apical to basolateral side in human Caco-2 cells at 10 uM incubated for 90 mins by LC-MS/MS analysis; assay type: ADME, cell-based
[4] = Metabolic stability in mouse hepatocytes assessed as intrinsic clearance measured per 10^6 cells at 2 uM incubated for 15 to 120 mins by LC-MS/MS analysis; assay type: ADME, cell-based, Hepatocyte; details: time 15-120 min, read-out: CLH
Galectin-1 [5] = biological target: T2, Galectin-1 (Homo sapiens, UniProt P09382); experiment: Binding affinity to human galectin 1 assessed as dissociation constant incubated for 30 mins in presence of TDGA probe by fluorescence polarization assay
T2 sequence (P09382 whole entry): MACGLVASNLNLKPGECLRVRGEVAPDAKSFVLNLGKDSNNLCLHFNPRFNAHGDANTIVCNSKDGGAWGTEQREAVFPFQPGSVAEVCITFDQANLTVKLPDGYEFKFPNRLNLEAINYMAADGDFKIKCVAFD

[6] = Protein binding in human plasma assessed as unbound fraction at 2 uM incubated for 5 hrs by equilibrium dialysis based LC-MS/MS analysis; assay type: ADME, cell-free
[7] = Metabolic stability in human hepatocytes assessed as intrinsic clearance measured per 10^6 cells at 2 uM incubated for 15 to 120 mins by LC-MS/MS analysis; assay type: ADME, cell-based, Hepatocyte; details: time 15-120 min, read-out: CLH
[8] = Protein binding in mouse plasma assessed as unbound fraction at 2 uM incubated for 5 hrs by equilibrium dialysis based LC-MS/MS analysis; assay type: ADME, cell-free
[9] = Lipophilicity, logD of compound at pH 7.4 preincubated with octanol for 5 mins followed by phosphate buffer addition and measured after 1 hrs by shakeflask method based LC-MS/MS analysis; assay type: physicochemical; details: time 65 min
[10] = Apparent permeability from basolateral to apical side in human Caco-2 cells at 10 uM incubated for 90 mins by LC-MS/MS analysis; assay type: ADME, cell-based
Galectin-3 [11] = biological target: T1, Galectin-3; experiment: Binding affinity to human galectin-3 assessed as dissociation constant by SPR analysis
Galectin-4 [12] = biological target: T3, Galectin-4 (Homo sapiens, UniProt P56470); experiment: Binding affinity to N-terminal human Galectin-4 assessed as dissociation constant by fluorescence polarization assay
T3 sequence (P56470 whole entry): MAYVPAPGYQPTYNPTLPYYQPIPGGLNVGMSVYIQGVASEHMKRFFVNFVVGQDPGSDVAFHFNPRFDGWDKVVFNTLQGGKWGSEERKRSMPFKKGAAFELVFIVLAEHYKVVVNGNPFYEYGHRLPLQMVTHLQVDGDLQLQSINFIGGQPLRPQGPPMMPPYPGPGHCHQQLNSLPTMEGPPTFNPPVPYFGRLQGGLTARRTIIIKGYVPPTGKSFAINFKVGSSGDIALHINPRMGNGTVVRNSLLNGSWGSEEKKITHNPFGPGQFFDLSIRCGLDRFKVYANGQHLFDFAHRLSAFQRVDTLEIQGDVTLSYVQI

Galectin-7 = Galectin-7 (Homo sapiens, UniProt P47929); experiment: Binding affinity to human Galectin-7 assessed as dissociation constant by fluorescence polarization assay
Sequence of Galectin-7 (P47929 whole entry): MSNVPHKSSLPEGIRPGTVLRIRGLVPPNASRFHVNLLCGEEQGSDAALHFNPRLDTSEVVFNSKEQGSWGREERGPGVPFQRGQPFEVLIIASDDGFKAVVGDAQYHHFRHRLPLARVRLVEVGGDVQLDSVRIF

[13] = Cytotoxicity against human A549 cells assessed as inhibition of cell growth incubated for 72 hrs by MTT assay; assay type: toxicity, cell-based
Galectin-8 [14] = biological target: T4, Galectin-8 (Homo sapiens, UniProt O00214); experiment: Binding affinity to N-terminal human Galectin-8 assessed as dissociation constant by fluorescence polarization assay
T4 sequence (O00214 whole entry): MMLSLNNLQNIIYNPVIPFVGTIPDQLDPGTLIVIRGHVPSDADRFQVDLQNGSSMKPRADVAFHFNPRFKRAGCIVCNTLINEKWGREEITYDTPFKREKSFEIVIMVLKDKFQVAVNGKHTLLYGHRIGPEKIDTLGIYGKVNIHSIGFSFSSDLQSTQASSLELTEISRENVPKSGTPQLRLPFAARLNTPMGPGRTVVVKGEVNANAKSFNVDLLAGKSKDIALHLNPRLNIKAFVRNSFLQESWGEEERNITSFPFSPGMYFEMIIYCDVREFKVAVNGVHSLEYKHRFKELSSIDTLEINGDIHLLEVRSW

[15] = Cmax in C57BL/6 mouse at 10 mg/kg, po or 1 mg/kg, iv by HPLC analysis; assay type: ADME, organism-based; set-up: dose 10 mg/kg, route po; details: in vivo
Galectin-1 [16] = biological target: T2, Galectin-1; experiment: Binding affinity to human galectin-1 assessed as dissociation constant by SPR analysis
[17] = Clearance in C57BL/6 mouse at 1 mg/kg, iv measured upto 8 hrs by HPLC analysis; assay type: ADME, organism-based; details: in vivo
Galectin-8 [18] = biological target: T4, Galectin-8; experiment: Binding affinity to C-terminal human Galectin-8 assessed as dissociation constant by fluorescence polarization assay
Galectin-1 [19] = biological target: T5, Galectin-1 (Mus musculus, UniProt P16045); experiment: Binding affinity to mouse full-length galectin-1 assessed as dissociation constant by SPR analysis
T5 sequence (P16045 whole entry): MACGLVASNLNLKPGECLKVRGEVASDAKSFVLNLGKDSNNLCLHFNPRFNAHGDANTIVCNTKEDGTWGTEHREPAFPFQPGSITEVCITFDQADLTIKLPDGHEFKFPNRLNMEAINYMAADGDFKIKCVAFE

Jurkat [20] = experiment: Inhibition of galectin-1 induced apoptosis in human Jurkat T cells assessed as reduction in caspase-3 activation incubated for 24 hrs by CellEvent caspase-3/7 green fluorescent detection reagent based imaging analysis
[21] = Tmax in C57BL/6 mouse at 10 mg/kg, po or 1 mg/kg, iv by HPLC analysis; assay type: ADME, organism-based; details: in vivo
Galectin-9 [22] = biological target: T6, Galectin-9 (Homo sapiens, UniProt O00182); experiment: Binding affinity to C-terminal human Galectin-9 assessed as dissociation constant by fluorescence polarization assay
T6 sequence (O00182 whole entry): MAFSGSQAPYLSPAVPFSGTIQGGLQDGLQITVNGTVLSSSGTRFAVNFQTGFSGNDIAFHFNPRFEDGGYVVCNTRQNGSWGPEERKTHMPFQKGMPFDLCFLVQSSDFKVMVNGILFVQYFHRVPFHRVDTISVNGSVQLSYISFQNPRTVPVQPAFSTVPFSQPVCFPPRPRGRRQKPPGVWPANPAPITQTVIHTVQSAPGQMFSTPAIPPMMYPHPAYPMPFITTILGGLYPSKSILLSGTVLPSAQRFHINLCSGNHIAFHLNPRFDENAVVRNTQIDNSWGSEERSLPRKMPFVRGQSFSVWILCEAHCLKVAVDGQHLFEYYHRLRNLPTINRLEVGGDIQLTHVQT

Galectin-4 [23] = biological target: T3, Galectin-4; experiment: Binding affinity to C-terminal human Galectin-4 assessed as dissociation constant by fluorescence polarization assay
Galectin-3 [24] = biological target: T7, Galectin-3 (Mus musculus, UniProt P16110); experiment: Binding affinity to mouse full-length galectin-3 assessed as dissociation constant by SPR analysis
T7 sequence (P16110 whole entry): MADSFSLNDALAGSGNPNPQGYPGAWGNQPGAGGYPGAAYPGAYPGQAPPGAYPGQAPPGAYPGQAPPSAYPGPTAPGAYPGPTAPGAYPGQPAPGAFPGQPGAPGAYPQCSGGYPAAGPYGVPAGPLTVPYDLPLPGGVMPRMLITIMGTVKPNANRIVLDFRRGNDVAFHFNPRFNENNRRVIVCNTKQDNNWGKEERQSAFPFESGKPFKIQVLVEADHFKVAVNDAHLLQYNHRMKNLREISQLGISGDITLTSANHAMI

Galectin-3 [25] = biological target: T7, Galectin-3; experiment: Binding affinity to mouse Galectin-3 assessed as dissociation constant by fluorescence polarization assay
[26] = AUCinfinity in C57BL/6 mouse at 10 mg/kg, po or 1 mg/kg, iv by HPLC analysis; assay type: ADME, organism-based; set-up: dose 10 mg/kg, route po; details: in vivo
Galectin-1 [27] = biological target: T5, Galectin-1; experiment: Binding affinity to mouse Galectin-1 assessed as dissociation constant incubated for 30 mins in the presence of TDGA probe by fluorescence polarization assay
[28] = Oral bioavailability in C57BL/6 mouse at 10 mg/kg measured upto 24 hrs by HPLC analysis; assay type: ADME, organism-based; details: in vivo
Galectin-9 [29] = biological target: T6, Galectin-9; experiment: Binding affinity to N-terminal human Galectin-9 assessed as dissociation constant by fluorescence polarization assay
A549 = experiment: Cytotoxicity against human A549 cells assessed as reduction in cell viability incubated for 72 hrs by MTT assay relative to control; assay type: toxicity, cell-based; details: a549, 72 h
[30] = Volume of distribution at steady state in C57BL/6 mouse at 1 mg/kg, iv measured upto 8 hrs by HPLC analysis; assay type: ADME, organism-based; details: in vivo, read-out: Vdss
Galectin-1 [31] = biological target: T2, Galectin-1; experiment: Binding affinity to galectin-1 (unknown origin) assessed as dissociation constant
Galectin-3 [32] = biological target: T1, Galectin-3; experiment: Binding affinity to galectin-3 (unknown origin) assessed as dissociation constant

Structure (SMILES): CN(C)CCNC(=O)COc1c2cccc1Cc1cccc(c1OCC(=O)NCCN(C)C)Cc1cccc(c1OCC(=O)NCCN(C)C)Cc1cccc(c1OCC(=O)NCCN(C)C)C2
inhibition (Jurkat [1]): inactive

Structure (SMILES): OC[C@H]1O[C@H](Sc2ccc(Cl)c(Cl)c2)[C@H](O)[C@@H](n2cc(-c3ncsn3)nn2)[C@H]1O
Kd (Galectin-3 [2]): 3400 nM
Kd (Galectin-1 [5]): 2000 nM

Structure (SMILES): OC[C@H]1O[C@H](Sc2cncc(Br)c2)[C@H](O)[C@@H](n2cc(-c3ccsc3)nn2)[C@H]1O
Kd (Galectin-3 [2]): 1700 nM
Papp A→B at 1.5 h, 10 µM [3]: 4.5 ×10⁻⁶ cm/s
Kd (Galectin-1 [5]): 680 nM
logD at 1 h [9]: 2
Papp B→A at 1.5 h, 10 µM [10]: 31 ×10⁻⁶ cm/s

Structure (SMILES): OC[C@H]1O[C@H](Sc2ccc(Cl)c(Cl)c2)[C@H](O)[C@@H](n2cc(-c3nncs3)nn2)[C@H]1O
Kd (Galectin-3 [2]): 1300 nM
Kd (Galectin-1 [5]): 1700 nM

Structure (SMILES): OC[C@H]1O[C@H](Sc2cc(Cl)c(F)c(Cl)c2)[C@H](O)[C@@H](n2cc(-c3nccs3)nn2)[C@H]1O
Kd (Galectin-3 [11]): 62600 nM
Kd (Galectin-4 [12]): 37000 nM
Kd (Galectin-7): 60000 nM
Kd (Galectin-3 [2]): 2700 nM
IC50 at 72 h [13]: > 90000 nM
Kd (Galectin-8 [14]): 65000 nM
Cmax [15]: 6900 ng/mL
Kd (Galectin-1 [16]): 644 nM
clearance [17]: 7.5 mL/min/kg
Kd (Galectin-8 [18]): 130000 nM
Papp A→B at 1.5 h, 10 µM [3]: 11 ×10⁻⁶ cm/s
hepatocyte CLint at 2 µM [4]: < 1.5 µL/min/1e6 cells
Kd (Galectin-1 [19]): 363 nM
Kd (Galectin-1 [5]): 410 nM
fraction unbound at 5 h, 2 µM [6]: 0.038
IC50 (Jurkat [20]): 2300 nM
Tmax [21]: 30 min
hepatocyte CLint at 2 µM [7]: < 1 µL/min/1e6 cells
Kd (Galectin-9 [22]): 23000 nM
fraction unbound at 5 h, 2 µM [8]: 0.013
Kd (Galectin-4 [23]): 2500 nM
Kd (Galectin-3 [24]): 70400 nM
Kd (Galectin-3 [25]): 5800 nM
AUC(0-inf) [26]: 3200 ng·h/mL
Kd (Galectin-1 [27]): 230 nM
bioavailability [28]: > 99%
Kd (Galectin-9 [29]): 16000 nM
Activity (A549): 46.6%
Vd [30]: 0.4 L/kg
logD at 1 h [9]: 3.1
Papp B→A at 1.5 h, 10 µM [10]: 31 ×10⁻⁶ cm/s

Structure (SMILES): OC[C@H]1O[C@H](Sc2ccc(Cl)c(Cl)c2)[C@H](O)[C@@H](n2cc(-c3cc(F)c(F)c(F)c3)nn2)[C@H]1O
Papp A→B at 1.5 h, 10 µM [3]: 19 ×10⁻⁶ cm/s
Papp B→A at 1.5 h, 10 µM [10]: 20 ×10⁻⁶ cm/s

Structure (SMILES): OC[C@H]1O[C@@H](S[C@@H]2O[C@H](CO)[C@H](O)[C@H](n3cc(-c4ccsc4)nn3)[C@H]2O)[C@H](O)[C@@H](n2cc(-c3ccsc3)nn2)[C@H]1O
Kd (Galectin-1 [31]): < 10 nM
Kd (Galectin-3 [32]): 65 nM

Structure (SMILES): OC[C@H]1O[C@H](Sc2ccc(Cl)c(Cl)c2)[C@H](O)[C@@H](n2cc(-c3ncc[nH]3)nn2)[C@H]1O
Kd (Galectin-3 [2]): 2100 nM
Papp A→B at 1.5 h, 10 µM [3]: 0.4 ×10⁻⁶ cm/s
Kd (Galectin-1 [5]): 640 nM
logD at 1 h [9]: 2.3
Papp B→A at 1.5 h, 10 µM [10]: 25 ×10⁻⁶ cm/s

The remaining compounds from weak to strong by Kd (Galectin-3 [2]), led by results:

Kd (Galectin-3 [2]): 11000 nM
Kd (Galectin-1 [5]): 2700 nM
Structure (SMILES): OC[C@H]1O[C@H](Sc2ccc(Cl)c(Cl)c2)[C@H](O)[C@@H](n2cc(-c3ncco3)nn2)[C@H]1O

Kd (Galectin-3 [2]): 8000 nM
Papp A→B at 1.5 h, 10 µM [3]: 6 ×10⁻⁶ cm/s
hepatocyte CLint at 2 µM [4]: < 1.5 µL/min/1e6 cells
Kd (Galectin-1 [5]): 350 nM
fraction unbound at 5 h, 2 µM [6]: 0.068
hepatocyte CLint at 2 µM [7]: 1.1 µL/min/1e6 cells
fraction unbound at 5 h, 2 µM [8]: 0.033
logD at 1 h [9]: > 4
Papp B→A at 1.5 h, 10 µM [10]: 50 ×10⁻⁶ cm/s
Structure (SMILES): OC[C@H]1O[C@H](Sc2ccc(Cl)c(Cl)c2)[C@H](O)[C@@H](n2cc(-c3cscn3)nn2)[C@H]1O

Kd (Galectin-3 [2]): 3000 nM
Kd (Galectin-1 [5]): 22000 nM
Structure (SMILES): OC[C@H]1O[C@H](Sc2cc(Cl)c(F)c(Cl)c2)[C@H](O)[C@@H](n2cc(-c3cncs3)nn2)[C@H]1O

Kd (Galectin-3 [2]): 2900 nM
Papp A→B at 1.5 h, 10 µM [3]: 9 ×10⁻⁶ cm/s
hepatocyte CLint at 2 µM [4]: < 1.5 µL/min/1e6 cells
Kd (Galectin-1 [5]): 330 nM
fraction unbound at 5 h, 2 µM [6]: 0.033
hepatocyte CLint at 2 µM [7]: < 1 µL/min/1e6 cells
fraction unbound at 5 h, 2 µM [8]: 0.015
logD at 1 h [9]: 2.9
Papp B→A at 1.5 h, 10 µM [10]: 30 ×10⁻⁶ cm/s
Structure (SMILES): OC[C@H]1O[C@H](Sc2cc(Cl)c(F)c(Cl)c2)[C@H](O)[C@@H](n2cc(-c3cscn3)nn2)[C@H]1O

Kd (Galectin-3 [2]): 2100 nM
Papp A→B at 1.5 h, 10 µM [3]: 10 ×10⁻⁶ cm/s
hepatocyte CLint at 2 µM [4]: 15 µL/min/1e6 cells
Kd (Galectin-1 [5]): 280 nM
fraction unbound at 5 h, 2 µM [6]: 0.014
hepatocyte CLint at 2 µM [7]: 4.9 µL/min/1e6 cells
fraction unbound at 5 h, 2 µM [8]: 0.015
logD at 1 h [9]: 3.6
Papp B→A at 1.5 h, 10 µM [10]: 18 ×10⁻⁶ cm/s
Structure (SMILES): OC[C@H]1O[C@H](Sc2ccc(Cl)c(Cl)c2)[C@H](O)[C@@H](n2cc(-c3ccsc3)nn2)[C@H]1O

Kd (Galectin-3 [2]): 1500 nM
Kd (Galectin-1 [5]): 970 nM
Structure (SMILES): OC[C@H]1O[C@H](Sc2cc(Cl)c(F)c(Cl)c2)[C@H](O)[C@@H](n2cc(-c3cccs3)nn2)[C@H]1O
